Source: US20150258059A1, “ANTIMICROBIAL AND RADIOPROTECTIVE COMPOUNDS” (BioDiem, Ltd, priority 2001, published 2015)

What was measured:
[1] = test system: Candida albicans; assay: Rate of kill, viable counts
[2] = test system: Acinetobacter B-677; assay: Sensitivity of strains: suppression of growth; assay type: cell-based; conditions: Compound (1) 1.0%; antibiotics disc method
[3] = test system: C. laniolis 54/6; assay: MIC/MMC against clinical strains of Campylobacter spp.; conditions: Table 18; clinical strain isolated from humans

## C/C(=C\c1ccc2c(c1)OCO2)[N+](=O)[O-] [Compound (1)]
[1]; 128 μg/mL, in 6h
  Log reduction in viable count: 2 in 6h
[1]; 256 μg/mL, in 4h
  Log reduction in viable count: 6 in 4h
[1]; 512 μg/mL, at 2 h
  Log reduction in viable count: 5.5 at 2 h
[1]; within 2 hrs at 512 μg/mL
  reduction (kill): > 99.999%
[1]; within 4 hours at 256 μg/mL
  reduction (kill): > 99.999%
[2]
  Suppression of Growth (+/−): +
[3]
  MMC: 2
